# Reference: patent US12594255B2, “Lipids with odd number of carbon atoms and their use as pharmaceutical composition or nutritional supplement” (SunRegen Healthcare AG, priority 2016, dated 2026)
# Where two headings read alike, the source gives them in different places.
# Tests used:
# Assay type in all cases: cell-based
# [1] = tested on: mouse primary cortical neurons challenged with different types toxins; conditions: T3
# [2] = tested on: mouse primary cortical neurons challenged with camptothecin; experiment: Camptothecin-induced neuronal death, test item added 48 hours before camptothecin; conditions: for neuroprotective and anti-apoptotic effects: 48 h before 1 μM camptothecin; for cell viability: 48 h before 1 μM camptothecin 24 h
# Description: (§1) Mouse primary neurons were incubated with vehicle or toxins in the absence or presence of different concentrations of compound C added 48 hours before toxin's challenge. After the addition of toxins, cells were further incubated for 24 h.
# as §1, with “Herb B” for “compound C”, “camptothecin's” for “toxin's”, “Camptothecin,” for “toxins,”, “h. Data are represented as % of vehicle control (Mean±SD).” for “h.”
# The neuro-protective effects of different concentrations of compound C was investigated using mouse primary cortical neurons challenged with camptothecin, which is a cytotoxic quinoline alkaloid which inhibits the DNA enzyme topoisomerase I (topo I).
# (§2) Mouse primary neurons were incubated with vehicle or toxins in the absence or presence of different concentrations of compound C added 48 hours before toxin's challenge. After the addition of 1 μM camptothecin, cells were further incubated for 24 h in a final volume of 140 μL per well.
# as §2, with “Cells” for “Mouse primary neurons”, “toxins (at the indicated final concentrations described in plate-layout below)” for “toxins”
# [3] = tested on: human iPSC-derived neurons challenged with Aβ1-42 oligomers (AβO); experiment: AβO-induced neuronal death in human iPSC-derived neurons, NSE ELISA assay; conditions: 10000 nM; for viability at 10 µM: Homo sapiens, Neuron, read-out: cell viability
# Description: iPSCs were treated at 0 h (T0) with vehicle or 1 μM AβO. Different concentrations of Compound C or 0.1 μM HNG (used as positive control) were added concomitantly to AβO at 0 h (T0), 3 h (T3) or 6 h (T6) after AβO. Then, were incubated for 24 h and cell viability was determined using the NSE ELISA assay (n=6 determinations per condition, 1 independent experiment), Data are represented as % of vehicle control (Mean±SD). […]
# To determine whether compound C might rescue neuronal death in human iPSC-derived neurons challenged with Aβ1-42 oligomers (AβO). In this cellular model, AβO induce a dramatic neuronal death that could be monitored by the level of neuronal specific enolase (NSE) using a specific ELISA assay. Compound C will be added at different time points (concomitantly and after AMBO) with the aim to identify rescuing effects.
# Cells (HIP-Neuronal progenitors, GlobalStem, Cat #GSC-4312, Lot #20010260) are plated in 96-well plates at a density of 60.000 cells per well and culture. Before experiments, cells are matured for five weeks and kept at 37° C. in a humidified 5% CO2 atmosphere.
# Cells are incubated with vehicle or 1 μM AβO in the absence or presence of different concentrations (i.e. 10, 100, 1000 and 10000 nM) of Compound C added concomitantly to AβO (T0), 3 h after AβO (T3), or 6 h after AβO (T6). Cells are incubated for 24 h in a final volume of 100 μL per well. For positive control, cells are treated similarly in the presence of 0.1 μM HNG (i.e. S14G variant of humanin peptide). In addition, neuronal loss is monitored using the detection of neuronal specific enolase (NSE) by ELISA assay according to supplier's recommendations (CloneCloud, Cat #SEA537Hu). A total of three data points per experimental condition will be generated here. […]
# [4] = tested on: mouse primary cortical neurons challenged with Aβ1-42 oligomers (AβO); experiment: AβO-induced neurotoxicity, 48-h pre-incubation with test item, MTT assay; conditions: 48 h pre-incubation, then 1 μM AβO 24 h
# Description: Mouse primary cortical neurons were pre-incubated for 48 h with vehicle, 0.05 μM DHA (used as positive control) or different concentrations of Compound C. Then, cortical neurons were treated for 24 h with vehicle (FIG. 1 left) or 1 μM AβO ([…]) and cell viability was determined using the MTT assay (n=3 determinations per condition, 1 independent experiment), Data are represented as % of vehicle control (Mean*SD). […]
# (§3) Cortical neurons from embryonic day 16-17 are prepared from C57BL6/J mouse fetuses. In brief, dissociated cortical cells were plated (50.000 cells/well) in 48-well plates pre-coated with 1.5 μg/mL polyornithine (Sigma). Cells were cultured in a chemically defined Dulbecco's modified eagle's/F12 medium free of serum and supplemented with hormones, proteins and salts. Cultures were kept at 35° C. in a humidified 6% CO2 atmosphere. Mouse cortical neurons were exposed for 24 h to 1.0 μM AβO after a 48-h pre-incubation with vehicle or different concentrations of Compound C. The AβO-induced neurotoxicity was evaluated using the MTT assay.
# All treatments were done in triplicates in 48-well plates. Cells were incubated with vehicle or 1 μM AβO in the absence or presence of different lipids at the indicated final concentrations) added at 48 hours before ADO. Cells were incubated with AβO for 24 h in a final volume of 140 μL per well.
# For positive controls, cells are treated similarly (48 hours before AβO) in the presence of 0.05 μM DHA.
# Following AβO-treatment, cell viability was measured using the MTT assay. Briefly, cells were incubated at 35° C. for 1 h with MTT (Sigma, Cat #M2128-10G. Lot #MKBH7489V). For that purpose, 14 μL of 5 mg/mL MITT (solubilized in PBS) were added in each well. After incubation, medium was removed and cells were lyzed with 150 μL DMSO for 10 minutes and protected from light. After complete solubilization of formazan, absorbance at 570 nm was recorded.
# as §3, with “cells are” for “cells were”, “Cells are” for “Cells were”, “Cultures are” for “Cultures were”, “of herb B extracts.” for “of Compound C.”, “assay. […]” for “assay.”
structure (smiles),measurement,setting,value
"CCCCCCCCCCCCCCC(=O)OCC(COC(=O)CCCCCCCCCCCCCC)OC(=O)CCCCCCCCCCCCCC [Compound C, tripentadecanoin]",anti-apoptotic and neuroprotective effects,"[1]; Aβ1-42 fibrils, 10000 nM",223%
same,anti-apoptotic and neuroprotective effects,"[1]; Aβ25-35 fibrils, 10000 nM",32.1%
same,anti-apoptotic and neuroprotective effects,"[1]; alpha-synuclein fibrils, 1000 nM",34.0%
same,anti-apoptotic and neuroprotective effects,"[1]; human alpha-synuclein oligomer-induced toxicity, 10000 nM",45.8%
same,anti-apoptotic and neuroprotective effects,"[1]; human amylin fibrils, 1000 nM",45.3%
same,anti-apoptotic and neuroprotective effects,"[1]; human amylin fibrils, 10000 nM",52.6%
same,anti-apoptotic and neuroprotective effects,"[1]; human amylin oligomers, 1000 nM",30.8%
same,anti-apoptotic and neuroprotective effects,"[1]; human amylin oligomers, 10000 nM",37.3%
same,anti-apoptotic and neuroprotective effects,"[1]; human tau oligomer-induced toxicity, 10000 nM",46.8%
same,anti-apoptotic and neuroprotective effects,"[1]; tau fibril-induced toxicity, 10000 nM",23.1%
same,neuroprotective and anti-apoptotic effects,[2]; 10 nM,37.3%
same,cell viability,[2]; 10 nM,73.5±1.5 % of control
same,neuroprotective and anti-apoptotic effects,[2]; 100 nM,37.2%
same,cell viability,[2]; 100 nM,73.4±5.9 % of control
same,% of neuroprotection and anti-apoptotic effects,[3]; T0,53.7%
same,% of neuroprotection and anti-apoptotic effects,[3]; T3,90.8%
same,% of neuroprotection and anti-apoptotic effects,[3]; T6,78.9%
same,viability at 10 µM,[3]; T0,76.7 ± 2.7%
same,viability at 10 µM,[3]; T3,94.2 ± 7.1%
same,viability at 10 µM,[3]; T6,88.8 ± 1.3%
same,maximal neuroprotective effect,[4]; Compound C 320 nM,100%
same,EC50,"[4]; Mus musculus, Primary cortical neuron, expected around, read-out: EC50 effect (neuroprotection)",~66 nM
same,viability at 0.32 µM,"[4]; Mus musculus, Primary cortical neuron, Compound C 320 nM, read-out: cell viability",112 ± 1.5%
